{
  "source": "patent US20230021483A1",
  "about": "“[…] […] METHOD AND CLASSIFICATION OF PHARMACEUTICAL COMPONENTS BY USING TRANSCRIPTOMES” (National Institutes of Biomedical Innovation, Health and …, priority 2016, published 2023)",
  "test_system": "preferentially upregulated genes in LV, SP, LN",
  "assay": "Z-score-based differential gene expression analysis (adjuvant group- or adjuvant-associated genes, 40 module mapping, TargetMine annotation)",
  "type": "in vivo, C57BL/6 mice",
  "in_short": "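Per-sample fold-change values converted to gene-wise z-scores within each organ's data set, then triplicate z-scores summed per adjuvant. Genes with summed score >3 taken as preferentially expressed; gene groups defined by combined per-adjuvant z-score thresholds (z>1 to z>3) specific to each organ.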",
  "key": {"[1]": {"details": "liver (LV), gene group G1, module 20, individual mice x1-x3, route ID/IP/IN"}},
  "data": [
    {"substance": "K3: B class CpG ODN (ATCGACTCTCGAGCGTTCTC), TLR9 ligand (chemistry not given here)", "values": [
      {"measurement": "Uba7 1426970_a_at (Group G1, Modules 20)", "setting": "IP, LV, sample x2", "result": "−0.4"},
      {"measurement": "Adar 1425405_a_at (Group G1, Modules 20)", "setting": "IP, LV, sample x3", "result": "−0.2"},
      {"measurement": "Adar 1434268_at (Group G1, Modules 20)", "setting": "IP, LV, sample x3", "result": "−0.8"},
      {"measurement": "Ddx58 1436562_at (Group G1, Modules 20)", "setting": "IP, LV, sample x3", "result": "−0.4"},
      {"measurement": "Ddx58 1456890_at (Group G1, Modules 20)", "setting": "IP, LV, sample x3", "result": "−0.4"},
      {"measurement": "Eif2ak2 1422005_at (Group G1, Modules 20)", "setting": "IP, LV, sample x3", "result": "−0.5"},
      {"measurement": "G3bp2 1421323_a_at (Group G1, Modules 20)", "setting": "IP, LV, sample x3", "result": "−0.4"},
      {"measurement": "Gm9706///Isg15 1431591_s_at (Group G1, Modules 20)", "setting": "IP, LV, sample x3", "result": "−0.5"},
      {"measurement": "H2-T10///H2-T22///H2-T9 1449875_s_at (Group G1, Modules 20)", "setting": "IP, LV, sample x3", "result": "−0.4"},
      {"measurement": "Ifih1 1426276_at (Group G1, Modules 20)", "setting": "IP, LV, sample x3", "result": "−0.5"},
      {"measurement": "Ifit1 1450783_at (Group G1, Modules 20)", "setting": "IP, LV, sample x3", "result": "−0.5"},
      {"measurement": "Ifit3 1449025_at (Group G1, Modules 20)", "setting": "IP, LV, sample x3", "result": "−0.5"},
      {"measurement": "Irf7 1417244_a_at (Group G1, Modules 20)", "setting": "IP, LV, sample x3", "result": "−0.5"},
      {"measurement": "Irgm1 1418825_at (Group G1, Modules 20)", "setting": "IP, LV, sample x3", "result": "−0.6"},
      {"measurement": "Mndal 1426906_at (Group G1, Modules 20)", "setting": "IP, LV, sample x3", "result": "−0.4"},
      {"measurement": "Pml 1448757_at (Group G1, Modules 20)", "setting": "IP, LV, sample x3", "result": "−0.6"},
      {"measurement": "Pml 1456103_at (Group G1, Modules 20)", "setting": "IP, LV, sample x3", "result": "−0.6"},
      {"measurement": "Rnf213 1455500_at (Group G1, Modules 20)", "setting": "IP, LV, sample x3", "result": "−0.5"},
      {"measurement": "Rsad2 1436058_at (Group G1, Modules 20)", "setting": "IP, LV, sample x3", "result": "−0.5"},
      {"measurement": "Shisa5 1423986_a_at (Group G1, Modules 20)", "setting": "IP, LV, sample x3", "result": "−0.8"},
      {"measurement": "Shisa5 1437503_a_at (Group G1, Modules 20)", "setting": "IP, LV, sample x3", "result": "−0.6"},
      {"measurement": "Stat1 1450033_a_at (Group G1, Modules 20)", "setting": "IP, LV, sample x3", "result": "−0.5"},
      {"measurement": "Stat1 1450034_at (Group G1, Modules 20)", "setting": "IP, LV, sample x3", "result": "−0.6"},
      {"measurement": "Tdrd7 1426716_at (Group G1, Modules 20)", "setting": "IP, LV, sample x3", "result": "−0.3"},
      {"measurement": "Tor1aip2 1418115_s_at (Group G1, Modules 20)", "setting": "IP, LV, sample x3", "result": "−0.2"},
      {"measurement": "Tor1aip2 1418116_at (Group G1, Modules 20)", "setting": "IP, LV, sample x3", "result": "−0.2"},
      {"measurement": "Tor1aip2 1435526_at (Group G1, Modules 20)", "setting": "IP, LV, sample x3", "result": "−0.5"},
      {"measurement": "Trim12a 1437432_a_at (Group G1, Modules 20)", "setting": "IP, LV, sample x3", "result": "−0.5"},
      {"measurement": "Uba7 1426970_a_at (Group G1, Modules 20)", "setting": "IP, LV, sample x3", "result": "−0.3"},
      {"measurement": "preferentially induced biological process relative to adjuvants targeting the same receptor", "setting": "LN, z-scores and 40 module mapping", "result": "preferentially induced RNA biogenesis"},
      {"measurement": "Z score of gene expression, Adar (probe 1425405_a_at)", "setting": "[1]", "result": "−0.5"},
      {"measurement": "Z score of gene expression, Adar (probe 1434268_at)", "setting": "[1]", "result": "−0.1"},
      {"measurement": "Z score of gene expression, Ddx58 (probe 1436562_at)", "setting": "[1]", "result": "−0.5"},
      {"measurement": "Z score of gene expression, Ddx58 (probe 1456890_at)", "setting": "[1]", "result": "−0.6"},
      {"measurement": "Z score of gene expression, Eif2ak2 (probe 1422005_at)", "setting": "[1]", "result": "−0.5"},
      {"measurement": "Z score of gene expression, G3bp2 (probe 1421323_a_at)", "setting": "[1]", "result": "−0.5"},
      {"measurement": "Z score of gene expression, Gm9706///Isg15 (probe 1431591_s_at)", "setting": "[1]", "result": "−0.5"},
      {"measurement": "Z score of gene expression, H2-T10///H2-T22///H2-T9 (probe 1449875_s_at)", "setting": "[1]", "result": "−0.7"},
      {"measurement": "Z score of gene expression, Ifih1 (probe 1426276_at)", "setting": "[1]", "result": "−0.5"},
      {"measurement": "Z score of gene expression, Ifit1 (probe 1449025_at)", "setting": "[1]", "result": "−0.5"},
      {"measurement": "Z score of gene expression, Ifit1 (probe 1450783_at)", "setting": "[1]", "result": "−0.5"},
      {"measurement": "Z score of gene expression, Irf7 (probe 1417244_a_at)", "setting": "[1]", "result": "−0.4"},
      {"measurement": "Z score of gene expression, Irgm1 (probe 1418825_at)", "setting": "[1]", "result": "−0.5"},
      {"measurement": "Z score of gene expression, Mndal (probe 1426906_at)", "setting": "[1]", "result": "−0.5"},
      {"measurement": "Z score of gene expression, Pml (probe 1448757_at)", "setting": "[1]", "result": "−0.5"},
      {"measurement": "Z score of gene expression, Pml (probe 1456103_at)", "setting": "[1]", "result": "−0.6"},
      {"measurement": "Z score of gene expression, Rnf213 (probe 1455500_at)", "setting": "[1]", "result": "−0.5"},
      {"measurement": "Z score of gene expression, Rsad2 (probe 1436058_at)", "setting": "[1]", "result": "−0.5"},
      {"measurement": "Z score of gene expression, Shisa5 (probe 1423986_a_at)", "setting": "[1]", "result": "−0.5"},
      {"measurement": "Z score of gene expression, Shisa5 (probe 1437503_a_at)", "setting": "[1]", "result": "−0.5"},
      {"measurement": "Z score of gene expression, Stat1 (probe 1450033_a_at)", "setting": "[1]", "result": "−0.5"},
      {"measurement": "Z score of gene expression, Stat1 (probe 1450034_at)", "setting": "[1]", "result": "−0.5"},
      {"measurement": "Z score of gene expression, Tdrd7 (probe 1426716_at)", "setting": "[1]", "result": "−0.6"},
      {"measurement": "Z score of gene expression, Tor1aip2 (probe 1418115_s_at)", "setting": "[1]", "result": "−0.1"},
      {"measurement": "Z score of gene expression, Tor1aip2 (probe 1418116_at)", "setting": "[1]", "result": "−0.1"},
      {"measurement": "Z score of gene expression, Tor1aip2 (probe 1435526_at)", "setting": "[1]", "result": "−0.1"},
      {"measurement": "Z score of gene expression, Trim12a (probe 1437432_a_at)", "setting": "[1]", "result": "−0.4"},
      {"measurement": "Z score of gene expression, Uba7 (probe 1426970_a_at)", "setting": "[1]", "result": "−0.4"}
    ]}
  ]
}
